Key:
[1] = indicated by FDG PET studies; cited from earlier work
ATF4 = ATF4 chromatin immunoprecipitation sequencing in primary neurons; type: cell-based, mouse; conditions: 10 mM, 6 h
Experimental: ChIP-seq was performed according to the ChIPmentation protocol with minor modifications. In brief, 40 million primary neurons were used for each condition. Cells were fixed in methanol free formaldehyde (1% final concentration) for 10 min at room temperature with slow rotation to allow the cross-linking of chromatin proteins and DNA. Cross-linking was stopped by incubation with 0.125 M glycine for 5 min at room temperature. The cells were washed twice with ice-cold phosphate-buffered saline (PBS) and 2 ml of cell scrapping solution was added cell were scrapped and collected in respective tubes. Tubes with cells were centrifuged at 2800 rpm for 10 min at 4° C. and supernatant was aspirated out. Cell pellets left in the tube were resuspended in 300 μl of 0.25% SDS sonication buffer (10 mM Tris-HCl [pH 8.0], 2 mM EDTA, 0.25% SDS, and protease inhibitor cocktail). The lysates were transferred to 1.5 ml TPX microtubes for sonication (Diagenode, Catalog number: 20190430) and sonicated by Biorupter sonication device (Diagenode) to shear genomic DNA into 200-600 bp fragments. The lysates were centrifuged to remove debris and were then diluted 1:1.5 in equilibration buffer (10 mM Tris-HCl [pH 8.0], 1 mM EDTA, 1.67% Triton X-100, 0.17% sodium deoxycholate, 233 mM NaCl, and protease inhibitor cocktail). […]

AMP/ATP ratio = AMP/ATP ratio from metabolic profiling of mouse primary neurons; type: cell-based; conditions: 10 mM, 8 h
Experimental: Targeted Metabolite profiling was performed according to a method described in a previous publication (Chen et al., 2016). Polar metabolites were extracted using cold 80% methanol. The extracts were dried completely with a Speedvac and redissolved in water before it was applied to the hydrophilic interaction chromatography LC-MS. The sample injection order was randomized. Metabolites were measured on a Q Exactive Orbitrap mass spectrometer (Thermo Scientific), which was coupled to a Vanquish UPLC system (Thermo Scientific) via an Ion Max ion source with a HESI II probe (Thermo Scientific). A Sequant ZIC-[…] column (2.1 mm i.d.×150 mm, particle size of 5 μm, Millipore Sigma) was used for separation of metabolites. A 2.1×20 mm guard column with the same packing material was used for protection of the analytical column. Flow rate was set at […]. […] The MS data was processed using XCalibur 4.1 (Thermo Scientific) to extract the metabolite signal intensity for relative quantitation. […] In pathway enrichment analysis, a single P value is calculated for each metabolic pathway. Pathway topology analysis measured the significance of a given experimentally identified metabolite in a pre-defined metabolic pathway.

human Bdnf promoters = assay: Human Bdnf promoter luciferase reporters in HT22 cells; type: cell-based, mouse; conditions: 10 mM, 6 h

OC[C@H]1OC(O)C[C@@H](O)[C@@H]1O (stereo partly drawn) [2-DG, (4R,5S,6R)-6-(hydroxymethyl)oxane-2,4,5-triol]
crossing of the blood brain barrier [1]: can easily cross the blood brain barrier | ATF4 binding at Bdnf (ChIP-Seq) (ATF4): selective enrichment of ATF4 close to the transcription start site of Bdnf | ATF4 binding to other plasticity genes (ChIP-Seq) (ATF4): enhanced binding of ATF4 to several plasticity genes | AMP-ATP ratio (AMP/ATP ratio): increase | promoter activity of nine human Bdnf promoters (human Bdnf promoters): all Bdnf promoters except Bdnf promoter VI were significantly upregulated

— patent publication US20240197760A1, “ACTIVATORS OF INTEGRATED STRESS RESPONSE PATHWAY FOR PROTECTION AGAINST FERROPTOSIS” (Burke Neurological Institute, priority 2021, published 2024)
